Biological target: human OX2R (Homo sapiens (Human), UniProt O43614)
Experiment: IPOne (IP-1) assay in CHO cells expressing human OX2R
Type: cell-based
Conditions: for Emax: CHO, read-out: Emax (%); for Emax / Emax (%): percentage of mean max effect of a reference compound at 1 uM (100% activity by comparison to Orexin A), human OX2R; for IC50: CHO cells expressing human OX2R, IP-One detection, 2 hours incubation, EC50 = inflection point of four parameter logistic fit, read-out: hOX2R_IP_IC50
From the text: The utility of the compounds in accordance with the present invention as orexin receptor OX1R and/or OX2R agonists may be readily determined without undue experimentation by methodology well known in the art. Both the OX1R and/or OX2R G-coupled protein receptors (GPCRs) couple through the Gαq signaling pathway, which ultimately promotes calcium mobilization via inositol triphosphate (IP3) production. The half-life of IP-3 is relatively short, being rapidly metabolized to inositol monophosphate (IP-1), which can be readily detected using a commercially available assay kit (IP-One; Cisbio; cat #621PAPEC) coupled with a cell line expressing the target receptor(s) of interest. The utility of the compounds in accordance with the present invention as orexin receptor OX1R and/or OX2R agonists may be determined utilizing this assay.
In a typical experiment, the OX1 and OX2 receptor agonist activity is determined in accordance with the following general experimental method. Chinese hamster ovary (CHO) cells expressing human OX1R and/or the human OX2R were grown in Iscove's modified DMEM containing glutaMAX™, 1% G418, 100 U/mL penicillin, 100 μg/mL streptomycin and 10% heat-inactivated qualified fetal bovine serum (FBS). The OX2R cells were seeded at 10,000 cells/well/50 μL and the OX1R cells were seeded at 20,000 cells/well/50 μL into 384-well white tissue culture plates (Greiner; cat #781080). All cell/media reagents were from GIBCO-Invitrogen Corp. The seeded cell plate(s) were incubated at 37° C. with 5% CO2 and 85% humidity for 20-24 hours. On the day of the assay, assay-ready compound plates were prepared using an acoustic liquid handler (ECHO; Labcyte), which dispensed sufficient volume of test compound stock (10 mM in DMSO) or 100% DMSO to prepare 10 point, ½-log dilutions in a final volume of 202.5 nL/well in all test wells of a 384-well diamond plate (Labcyte). Following completion of assay-ready plates, importantly, the next three steps were performed with minimal delay: 1) 20 μl of 1× stimulation buffer was added to the compound plate using a Multidrop Combi (small cassette, Thermo Fisher Scientific cat #24073290); 2) culture medium was removed from the cell plate using the Bluewasher plate washer (gentle spin; BlueCatBio); 3) 14 μl of compound/stimulation buffer mixture was added to the cell plate using a Bravo liquid handler (Agilent) prior to incubating cell plates at 37° C. with 5% CO2 and 85% humidity for 1 or 2 hours (OX1R and OX2R, respectively). During this incubation, IP-one detection reagents were prepared (38:1:1 lysis buffer:D2:AB-cryptate reagents). Six μL of mixed detection reagents were added to the cell plate using a Multidrop Combi (small cassette, Thermo Fisher Scientific cat #24073290) and incubated 60 minutes at room temperature in the dark. Fluorescence signal was detected using an Envision plate reader (Perkin Elmer) [LANCE/DELFIA Dual Enh (Em: APC 665; Ex: Cy5 620)].
For each compound, data were fit to a four parameter logistic fit (ActivityBase software) and the EC50 was reported as the inflection point of the resulting curve. Percent effect for each test compound was determined as the percentage of sample raw value/mean max effect, where the mean max effect was derived from the mean raw value of 32 control wells per assay plate (using Orexin A (cat #003-30) at 1 μM for human OX1R and a reference compound at 1 uM with 100% activity previously established by comparison to Orexin A for human OX2R). The intrinsic orexin receptor agonist activity of a compound which may be used in the present invention may be determined by these assays.

Sequence of human OX2R (O43614 whole entry): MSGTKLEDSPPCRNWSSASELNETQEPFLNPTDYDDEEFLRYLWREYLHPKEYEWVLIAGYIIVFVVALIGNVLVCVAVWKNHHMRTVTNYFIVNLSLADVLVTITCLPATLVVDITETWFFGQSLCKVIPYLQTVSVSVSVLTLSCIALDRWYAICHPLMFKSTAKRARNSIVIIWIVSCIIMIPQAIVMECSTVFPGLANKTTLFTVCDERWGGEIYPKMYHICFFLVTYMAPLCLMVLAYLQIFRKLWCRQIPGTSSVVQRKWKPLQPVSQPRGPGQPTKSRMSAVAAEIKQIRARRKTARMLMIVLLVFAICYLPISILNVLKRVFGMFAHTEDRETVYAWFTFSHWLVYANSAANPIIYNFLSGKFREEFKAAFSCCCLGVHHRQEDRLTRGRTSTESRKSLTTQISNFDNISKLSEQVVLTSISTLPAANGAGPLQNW

SMILES | Emax | IC50 | Emax (%)
C[C@@H]1C[C@H](NS(C)(=O)=O)[C@H](CO[C@H]2CC[C@@]3(c4ncc(F)cn4)C[C@H]3C2)N1C(=O)OC[C@H]1C[C@H]1F [Example 51, ((1R,2R)-2-fluorocyclopropyl)methyl (2R,3S,5R)-2-((((1S,3S,6R)-6-(5-fluoropyrimidin-2-yl)bicyclo[4.1.0]heptan-3-yl)oxy)methyl)-5-methyl-3-(methylsulfonamido)pyrrolidine-1-carboxylate] | 102% | – | –
COC(=O)N1[C@H](C)C[C@H](NS(=O)(=O)N(C)C)[C@@H]1COC1CCC2(c3cnccn3)CC2C1 (single isomer, unassigned) [Example 14] | – | – | 93.5%
COC(=O)N1CC[C@H](NS(C)(=O)=O)[C@@H]1CO[C@@H]1CC[C@]2(c3ncccn3)C[C@@H]2C1 (single isomer, unassigned) [Example 25] | – | – | 94.7%
COC(=O)N1[C@H](C)C[C@H](NS(=O)(=O)N(C)C)[C@@H]1COC1CCC2(c3cccc(F)c3)CC2C1 (mixture of isomers) [Example 3, methyl (2R,3S,5R)-3-((N,N-dimethylsulfamoyl)amino)-2-(((6-(3-fluorophenyl)bicyclo[4.1.0]heptan-3-yl)oxy)methyl)-5-methylpyrrolidine-1-carboxylate] | 99.9% | – | –
COC(=O)N1[C@@H]2CCC[C@@H]2[C@H](NS(=O)(=O)CF)[C@@H]1COC1CCC2(c3ncc(F)cn3)CC2C1 (stereo partly drawn) [Example 130, methyl (2R,3S,3aS,6aR)-3-((fluoromethyl)sulfonamido)-2-(((6-(5-fluoropyrimidin-2-yl)bicyclo[4.1.0]heptan-3-yl)oxy)methyl)hexahydrocyclopenta[b]pyrrole-1(2H)-carboxylate] | 101% | – | –
CC(C)OC(=O)N1CCC[C@H](NS(C)(=O)=O)[C@@H]1CO[C@H]1CC[C@@]2(c3ncc(F)cn3)C[C@H]2C1 (single isomer, unassigned) [Example 125] | 103% | 0.95 nM | –
COC(=O)N1[C@H](C)C[C@H](NS(C)(=O)=O)[C@@H]1COC1CCC2(c3ncc(F)c(C4CC4)n3)CC2C1 (stereo partly drawn) [Example 74, methyl (2R,3S,5R)-2-(((6-(4-cyclopropyl-5-fluoropyrimidin-2-yl)bicyclo[4.1.0]heptan-3-yl)oxy)methyl)-5-methyl-3-(methylsulfonamido)pyrrolidine-1-carboxylate] | 84% | – | –
COC(=O)N1[C@H](C)C[C@H](NS(=O)(=O)N(C)C)[C@@H]1COC1CCC2(c3cc(F)cc(F)c3)CC2C1 (stereo partly drawn) [Example 4, methyl (2R,3S,5R)-2-(((6-(3,5-difluorophenyl)bicyclo[4.1.0]heptan-3-yl)oxy)methyl)-3-((N,N-dimethylsulfamoyl)amino)-5-methylpyrrolidine-1-carboxylate] | 97.3% | – | –
COC(=O)N1[C@H](C)C[C@H](NS(C)(=O)=O)[C@@H]1COC1CCC2(c3nccs3)CC2C1 (stereo partly drawn) [Example 149, methyl (2R,3S,5R)-5-methyl-3-(methylsulfonamido)-2-(((6-(thiazol-2-yl)bicyclo[4.1.0]heptan-3-yl)oxy)methyl)pyrrolidine-1-carboxylate] | 96.8% | – | –
COC(=O)N1CC[C@H](NS(C)(=O)=O)[C@@H]1COC1CCC2(c3ncccn3)CC2C1 (stereo partly drawn) [Example 21, methyl (2R,3S)-3-(methylsulfonamido)-2-(((6-(pyrimidin-2-yl)bicyclo[4.1.0]heptan-3-yl)oxy)methyl)pyrrolidine-1-carboxylate] | – | – | 94.6%
COC(=O)N1[C@H](C)C[C@H](NS(=O)(=O)C(F)F)[C@@H]1CO[C@H]1CC[C@@]2(c3ncccn3)C[C@H]2C1 [Example 68, methyl (2R,3S,5R)-3-((difluoromethyl)sulfonamido)-5-methyl-2-((((1S,3S,6R)-6-(pyrimidin-2-yl)bicyclo[4.1.0]heptan-3-yl)oxy)methyl)pyrrolidine-1-carboxylate] | 99.7% | – | –
COC(=O)N1[C@H](C)C[C@H](NS(=O)(=O)CC(F)(F)F)[C@@H]1CO[C@H]1CC[C@@]2(c3ncc(F)cn3)C[C@H]2C1 [Example 32, methyl (2R,3S,5R)-2-((((1S,3S,6R)-6-(5-fluoropyrimidin-2-yl)bicyclo[4.1.0]heptan-3-yl)oxy)methyl)-5-methyl-3-((2,2,2-trifluoroethyl)sulfonamido)pyrrolidine-1-carboxylate] | 103% | – | –

Now from value to compound:

Emax | IC50 | Emax (%) | SMILES
101% | 3.9 nM | – | COC(=O)N1[C@H](C)C[C@H](NS(=O)(=O)N(C)C)[C@@H]1CO[C@@H]1CC[C@]2(c3ncc(F)cn3)C[C@@H]2C1 (single isomer, unassigned) [Example 165]
103% | – | – | COC(=O)N1[C@H](C)C[C@H](NS(C)(=O)=O)[C@@H]1COC1CCC2(c3ncc(Cl)cn3)CC2C1 (stereo partly drawn) [Example 140, methyl (2R,3S,5R)-2-(((6-(5-chloropyrimidin-2-yl)bicyclo[4.1.0]heptan-3-yl)oxy)methyl)-5-methyl-3-(methylsulfonamido)pyrrolidine-1-carboxylate]
101% | – | – | COC(=O)N1[C@H](C)C[C@H](NS(C)(=O)=O)[C@@H]1CO[C@@H]1CC[C@]2(c3ncc(F)cn3)C[C@@H]2C1 [Example 136, methyl (2R,3S,5R)-2-((((1R,3R,6S)-6-(5-fluoropyrimidin-2-yl)bicyclo[4.1.0]heptan-3-yl)oxy)methyl)-5-methyl-3-(methylsulfonamido)pyrrolidine-1-carboxylate]
98.1% | – | – | COC(=O)N1[C@H](C)C[C@H](NS(C)(=O)=O)[C@@H]1COC1CCC2(c3ncc(C)cn3)CC2C1 (stereo partly drawn) [Example 159, methyl (2R,3S,5R)-5-methyl-2-(((6-(5-methylpyrimidin-2-yl)bicyclo[4.1.0]heptan-3-yl)oxy)methyl)-3-(methylsulfonamido)pyrrolidine-1-carboxylate]
103% | 49.5 nM | – | COC(=O)N1[C@H](C)C[C@H](NS(C)(=O)=O)[C@@H]1CO[C@H]1CC[C@@]2(c3ncc(C#N)cn3)C[C@H]2C1 [Example 190, methyl (2R,3S,5R)-2-((((1S,3S,6R)-6-(5-cyanopyrimidin-2-yl)bicyclo[4.1.0]heptan-3-yl)oxy)methyl)-5-methyl-3-(methylsulfonamido)pyrrolidine-1-carboxylate]
101% | – | – | COC(=O)N1[C@H](C)C[C@H](NS(=O)(=O)CC(C)C)[C@@H]1CO[C@H]1CC[C@@]2(c3ncc(F)cn3)C[C@H]2C1 [Example 35, methyl (2R,3S,5R)-2-((((1S,3S,6R)-6-(5-fluoropyrimidin-2-yl)bicyclo[4.1.0]heptan-3-yl)oxy)methyl)-5-methyl-3-((2-methylpropyl)sulfonamido)pyrrolidine-1-carboxylate]
99.7% | 100 nM | – | COC(=O)N1[C@H](C)C[C@H](NS(C)(=O)=O)[C@@H]1CO[C@@H]1CC[C@]2(c3ncccn3)C[C@@H]2C1 (single isomer, unassigned) [Example 180]
101% | – | – | COC(=O)N1[C@H](C)C[C@H](NS(C)(=O)=O)[C@@H]1COC1CCC2(c3ncc(F)c(OC)n3)CC2C1 (stereo partly drawn) [Example 76, methyl (2R,3S,5R)-2-(((6-(5-fluoro-4-methoxypyrimidin-2-yl)bicyclo[4.1.0]heptan-3-yl)oxy)methyl)-5-methyl-3-(methylsulfonamido)pyrrolidine-1-carboxylate]
102% | – | – | COC(=O)N1[C@H](C)C[C@H](NS(C)(=O)=O)[C@@H]1COC1CCC2(c3ncccn3)CC2C1 (stereo partly drawn) [Example 184, methyl (2R,3S,5R)-5-methyl-3-(methylsulfonamido)-2-(((6-(pyrimidin-2-yl)bicyclo[4.1.0]heptan-3-yl)oxy)methyl)pyrrolidine-1-carboxylate]
